Data from patent publication EP4725957A1, “GROUP OF CYCLIC ALKALINE LIPOPEPTIDE COMPOUNDS, AND PREPARATION METHOD THEREFOR AND USE THEREOF” (Institute of Medicinal Biotechnology, Chinese Academy of …, priority 2023, dated 2024).
In brackets after ≈: the same amount, converted by molar mass. Numbered stars: 1 amine (or outer) side, 2 acyl side, 3 side chain; on linkers, the order of the positions; unused ones are H or OH. Bridge positions count the residues as written; N and C are the ends. Square brackets hold non-standard residues; d marks the D form. Peptide text beside a SMILES is read from it. * marks the point of attachment. X3 = O=C([C@@H](Cc1ccc(CS(=O)(=O)O)cc1)N[*:1])[*:2]; Dab(CH2SO3H) = N[C@@H](CCNCS(=O)(=O)O)C(=O)O; X2 = O=C([C@H](CNCS(=O)(=O)O)N[*:1])[*:2]; Heptanoyl(6-Me) = CC(C)CCCCC(=O)*; Sulfomethyl = O=S(=O)(O)C*; Dab = NCC[C@H](N)C(=O)O

Key:
Format in all cases: cell-based
[1] = test system: Acinetobacter baumannii ABA19-1; conditions: ABA19-1
How it was run: (§1)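 Per CLSI, bacteria at a final (2-4) × 10^5 CFU/mL were exposed in Mueller-Hinton broth to two-fold compound series (final 64 down to 0.03 mg/L). MIC read after 16-20 h at 35-37°C in sealed plates.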

[2] = test system: Acinetobacter baumannii NCTC 13304 (OXA-27); conditions: NCTC 13304
How it was run: as §1

[3] = test system: Escherichia coli ATCC BAA-2340 (KPC); conditions: ATCC BAA-2340
How it was run: as §1

[4] = test system: Escherichia coli ATCC BAA-2523; conditions: ATCC BAA-2523
How it was run: as §1

[5] = test system: Klebsiella pneumoniae ATCC BAA-1705 (KPC); conditions: ATCC BAA-1705
How it was run: as §1

[6] = test system: Klebsiella pneumoniae KPN+19-15; conditions: KPN+19-15
How it was run: as §1

[7] = test system: Pseudomonas aeruginosa ATCC 27853; conditions: ATCC 27853
How it was run: as §1

[8] = test system: Pseudomonas aeruginosa PAE19-3; conditions: PAE19-3
How it was run: as §1

[9] = Nephrotoxicity assay: in vitro cytotoxicity of HK-2 cells by CCK-8 assay; conditions: human, HK-2 cells (human renal), 72 h incubation with drug-containing medium
How it was run: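 Compounds in sterile water, diluted to final 500, 250, 200, 100, 50, 25 and 12.5 µg/mL, were applied for 72 h to human HK-2 kidney cells. Absorbance at 450 nm after 3 h CCK-8 gave viability against untreated wells, and IC50 came from logarithmic regression; three replicates.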

SMILES	MIC [1] [µg/mL]	MIC [2] [µg/mL]	MIC [3] [µg/mL]	MIC [4] [µg/mL]	MIC [5] [µg/mL]	MIC [6] [µg/mL]	MIC [7] [µg/mL]	MIC [8] [µg/mL]	IC50 at 72 h [9] [µg/mL]
CC(C)CCCCC(=O)N[C@@H](CCN)C(=O)N[C@H](C(=O)N[C@H](CO)C(=O)N[C@H]1CCNC(=O)[C@H]([C@@H](C)O)NC(=O)[C@H](CCN)NC(=O)[C@H](CCN)NC(=O)[C@H]([C@@H](C)O)NC(=O)[C@@H](Cc2ccccc2)NC(=O)[C@H](CCN)NC1=O)[C@@H](C)OCS(=O)(=O)O [Compound 104, 6-methylheptanoyl-Dab-Thr(CH2SO3H)-D-Ser-ring(4-10)[Dab-Dab-D-Phe-Thr-Dab-Dab-Thr]] ({Heptanoyl(6-Me)}-[Dab]T(Sulfomethyl)[dS][Dab][Dab][dF]T[Dab][Dab]T; lactam 4-C)	0.06 (≈ 0.0477 µM)	0.06 (≈ 0.0477 µM)	0.03 (≈ 0.0238 µM)	0.03 (≈ 0.0238 µM)	0.125 (≈ 0.0993 µM)	0.125 (≈ 0.0993 µM)	0.25 (≈ 0.199 µM)	0.25 (≈ 0.199 µM)	> 500
CC(C)CCCCC(=O)N[C@@H](CCN)C(=O)N[C@H](C(=O)N[C@H](CO)C(=O)N[C@H]1CCNC(=O)[C@H]([C@@H](C)O)NC(=O)[C@H](CCN)NC(=O)[C@H](CCN)NC(=O)[C@H]([C@@H](C)OCS(=O)(=O)O)NC(=O)[C@@H](Cc2ccccc2)NC(=O)[C@H](CCN)NC1=O)[C@@H](C)O [Compound 105, 6-methylheptanoyl-Dab-Thr-D-Ser-ring(4-10)[Dab-Dab-D-Phe-Thr(CH2SO3H)-Dab-Dab-Thr]] ({Heptanoyl(6-Me)}-[Dab]T[dS][Dab][Dab][dF]T(Sulfomethyl)[Dab][Dab]T; lactam 4-C)	0.06 (≈ 0.0477 µM)	0.06 (≈ 0.0477 µM)	0.03 (≈ 0.0238 µM)	0.03 (≈ 0.0238 µM)	0.125 (≈ 0.0993 µM)	0.125 (≈ 0.0993 µM)	0.25 (≈ 0.199 µM)	0.25 (≈ 0.199 µM)	> 500
CC(C)CCCCC(=O)N[C@@H](CCN)C(=O)N[C@H](C(=O)N[C@H](CO)C(=O)N[C@H]1CCNC(=O)[C@H]([C@@H](C)OCS(=O)(=O)O)NC(=O)[C@H](CCN)NC(=O)[C@H](CCN)NC(=O)[C@H]([C@@H](C)O)NC(=O)[C@@H](Cc2ccccc2)NC(=O)[C@H](CCN)NC1=O)[C@@H](C)O [Compound 106, 6-methylheptanoyl-Dab-Thr-D-Ser-ring(4-10)[Dab-Dab-D-Phe-Thr-Dab-Dab-Thr(CH2SO3H)]] ({Heptanoyl(6-Me)}-[Dab]T[dS][Dab][Dab][dF]T[Dab][Dab]T(Sulfomethyl); lactam 4-C)	0.06 (≈ 0.0477 µM)	0.06 (≈ 0.0477 µM)	0.03 (≈ 0.0238 µM)	0.03 (≈ 0.0238 µM)	0.125 (≈ 0.0993 µM)	0.125 (≈ 0.0993 µM)	0.25 (≈ 0.199 µM)	0.25 (≈ 0.199 µM)	> 500
CC(C)CCCCC(=O)N[C@@H](CCN)C(=O)N[C@H](C(=O)N[C@H](CO)C(=O)N[C@H]1CCNC(=O)[C@H]([C@@H](C)O)NC(=O)[C@H](CCN)NC(=O)[C@H](CCN)NC(=O)[C@H]([C@@H](C)O)NC(=O)[C@@H](Cc2ccc(CS(=O)(=O)O)cc2)NC(=O)[C@H](CCN)NC1=O)[C@@H](C)O [Compound 107, 6-methylheptanoyl-Dab-Thr-D-Ser-ring(4-10)[Dab-Dab-D-Phe(4-CH2SO3H)-Thr-Dab-Dab-Thr]] ({Heptanoyl(6-Me)}-[Dab]T[dS][Dab][Dab][X3]T[Dab][Dab]T; lactam 4-C)	0.06 (≈ 0.0477 µM)	0.06 (≈ 0.0477 µM)	0.03 (≈ 0.0238 µM)	0.03 (≈ 0.0238 µM)	0.125 (≈ 0.0993 µM)	0.125 (≈ 0.0993 µM)	0.25 (≈ 0.199 µM)	0.25 (≈ 0.199 µM)	> 500
CC(C)CCCCC(=O)N[C@@H](CCNCS(=O)(=O)O)C(=O)N[C@H](C(=O)N[C@H](CO)C(=O)N[C@H]1CCNC(=O)[C@H]([C@@H](C)O)NC(=O)[C@H](CCN)NC(=O)[C@H](CCN)NC(=O)[C@H]([C@@H](C)O)NC(=O)[C@@H](Cc2ccccc2)NC(=O)[C@H](CCN)NC1=O)[C@@H](C)O [Compound 108, 6-methylheptanoyl-Dab(CH2SO3H)-Thr-D-Ser-ring(4-10)[Dab-Dab-D-Phe-Thr-Dab-Dab-Thr]] ({Heptanoyl(6-Me)}-[Dab(CH2SO3H)]T[dS][Dab][Dab][dF]T[Dab][Dab]T; lactam 4-C)	0.25 (≈ 0.199 µM)	0.06 (≈ 0.0477 µM)	0.06 (≈ 0.0477 µM)	0.06 (≈ 0.0477 µM)	0.125 (≈ 0.0993 µM)	0.125 (≈ 0.0993 µM)	0.25 (≈ 0.199 µM)	0.5 (≈ 0.397 µM)	> 500
CC(C)CCCCC(=O)N[C@@H](CCN)C(=O)N[C@H](C(=O)N[C@H](CO)C(=O)N[C@H]1CCNC(=O)[C@H]([C@@H](C)O)NC(=O)[C@H](CCN)NC(=O)[C@H](CCN)NC(=O)[C@H]([C@@H](C)O)NC(=O)[C@@H](Cc2ccccc2)NC(=O)[C@H](CCNCS(=O)(=O)O)NC1=O)[C@@H](C)O [Compound 109, 6-methylheptanoyl-Dab-Thr-D-Ser-ring(4-10)[Dab-Dab(CH2SO3H)-D-Phe-Thr-Dab-Dab-Thr]] ({Heptanoyl(6-Me)}-[Dab]T[dS][Dab][Dab(CH2SO3H)][dF]T[Dab][Dab]T; lactam 4-C)	0.25 (≈ 0.199 µM)	0.06 (≈ 0.0477 µM)	0.06 (≈ 0.0477 µM)	0.06 (≈ 0.0477 µM)	0.125 (≈ 0.0993 µM)	0.125 (≈ 0.0993 µM)	0.25 (≈ 0.199 µM)	0.5 (≈ 0.397 µM)	> 500
CC(C)CCCCC(=O)N[C@@H](CCN)C(=O)N[C@H](C(=O)N[C@H](CO)C(=O)N[C@H]1CCNC(=O)[C@H]([C@@H](C)O)NC(=O)[C@H](CCN)NC(=O)[C@H](CCNCS(=O)(=O)O)NC(=O)[C@H]([C@@H](C)O)NC(=O)[C@@H](Cc2ccccc2)NC(=O)[C@H](CCN)NC1=O)[C@@H](C)O [Compound 110, 6-methylheptanoyl-Dab-Thr-D-Ser-ring(4-10)[Dab-Dab-D-Phe-Thr-Dab(CH2SO3H)-Dab-Thr]] ({Heptanoyl(6-Me)}-[Dab]T[dS][Dab][Dab][dF]T[Dab(CH2SO3H)][Dab]T; lactam 4-C)	0.25 (≈ 0.199 µM)	0.06 (≈ 0.0477 µM)	0.06 (≈ 0.0477 µM)	0.06 (≈ 0.0477 µM)	0.125 (≈ 0.0993 µM)	0.125 (≈ 0.0993 µM)	0.25 (≈ 0.199 µM)	0.5 (≈ 0.397 µM)	> 500
CC(C)CCCCC(=O)N[C@@H](CCN)C(=O)N[C@H](C(=O)N[C@H](CO)C(=O)N[C@H]1CCNC(=O)[C@H]([C@@H](C)O)NC(=O)[C@H](CCNCS(=O)(=O)O)NC(=O)[C@H](CCN)NC(=O)[C@H]([C@@H](C)O)NC(=O)[C@@H](Cc2ccccc2)NC(=O)[C@H](CCN)NC1=O)[C@@H](C)O [Compound 111, 6-methylheptanoyl-Dab-Thr-D-Ser-ring(4-10)[Dab-Dab-D-Phe-Thr-Dab-Dab(CH2SO3H)-Thr]] ({Heptanoyl(6-Me)}-[Dab]T[dS][Dab][Dab][dF]T[Dab][Dab(CH2SO3H)]T; lactam 4-C)	0.25 (≈ 0.199 µM)	0.06 (≈ 0.0477 µM)	0.06 (≈ 0.0477 µM)	0.06 (≈ 0.0477 µM)	0.125 (≈ 0.0993 µM)	0.125 (≈ 0.0993 µM)	0.25 (≈ 0.199 µM)	0.5 (≈ 0.397 µM)	> 500
CC(C)CCCCC(=O)N[C@@H](CCN)C(=O)N[C@H](C(=O)N[C@@H](CNCS(=O)(=O)O)C(=O)N[C@H]1CCNC(=O)[C@H]([C@@H](C)O)NC(=O)[C@H](CCN)NC(=O)[C@H](CCN)NC(=O)[C@H]([C@@H](C)O)NC(=O)[C@@H](Cc2ccccc2)NC(=O)[C@H](CCN)NC1=O)[C@@H](C)O [Compound 112, 6-methylheptanoyl-Dab-Thr-Dap(CH2SO3H)-ring(4-10)[Dab-Dab-D-Phe-Thr-Dab-Dab-Thr]] ({Heptanoyl(6-Me)}-[Dab]T[X2][Dab][Dab][dF]T[Dab][Dab]T; lactam 4-C)	0.06 (≈ 0.0477 µM)	0.06 (≈ 0.0477 µM)	0.03 (≈ 0.0239 µM)	0.03 (≈ 0.0239 µM)	0.125 (≈ 0.0994 µM)	0.125 (≈ 0.0994 µM)	0.25 (≈ 0.199 µM)	0.25 (≈ 0.199 µM)	> 500
